In patent publication US8658646B2, “Pyrrolopyrazine kinase inhibitors” (Hoffmann-LaRoche Inc., priority 2011, dated 2014):

Columns and labels:
[1] = target: T1, JAK3: Recombinant human kinase domain (Homo sapiens, UniProt P52333); assay: Determination of IC50 of Janus Kinase (JAK) inhibition, radioactive end-point 33P-ATP assay, JAK3; format: biochemical; settings: ATP 1.5 uM, peptide 50 uM, 20 minutes, read-out: JAK3-INHIB-DR/v1~NO ADDITIVE~Enzyme_Conc = 100
T1 construct: JAK3: Recombinant human kinase domain from Millipore (Cat #14-629) or prepared; purchased Millipore 14-629
T1 sequence (P52333 822-1111 limits assumed): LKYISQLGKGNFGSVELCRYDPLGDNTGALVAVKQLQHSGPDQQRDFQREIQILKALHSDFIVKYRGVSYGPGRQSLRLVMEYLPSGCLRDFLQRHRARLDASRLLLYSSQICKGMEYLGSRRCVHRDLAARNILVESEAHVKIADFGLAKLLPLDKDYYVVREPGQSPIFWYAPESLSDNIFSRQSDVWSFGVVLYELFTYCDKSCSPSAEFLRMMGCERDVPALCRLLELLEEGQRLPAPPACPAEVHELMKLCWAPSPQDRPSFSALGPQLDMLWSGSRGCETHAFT

[2] = target: T2, recombinant human SYK360-635 (Homo sapiens, UniProt P43405); assay: Determination of IC50 of Spleen Tyrosine Kinase (SYK) inhibition, 33P ATP filtration assay; format: biochemical; settings: SYK aa 360-635 0.5 nM; ATP 20 μM, peptide 5 μM, 0.1% BSA; read-out: SYK_ENZYME_FILTRATION/v1, BSA
T2 construct: made in house
Description: All concentrations were final in the reaction mixture and all incubations were carried at room temperature. […] SYK Assay Information Determination of IC50 of Spleen Tyrosine Kinase (SYK) Inhibition:
SYK kinase assay is a standard kinase assay adapted to a 96 well plate format. This assay is performed in 96-well format for IC50 determination with 8 samples which represented 10 half log dilutions and a 40 μL reaction volume. The assay measures the incorporation of radiolabeled ^33P γATP into an N-terminally biotinylated peptide substrate, derived from naturally occurring phosphoacceptor consensus sequence (Biotin-11aa DY*E). […] Experimental Method:
DMSO and the mixture was incubated for 10 min at RT.
The kinase reaction was initiated by the addition of 10 μL 4× substrate cocktail containing the DYE peptide substrate [0 or 5 μM], ATP [20 μM] and ^33PγATP [2 μCi/r×n]. After incubation at 30° C. for 15 min, the reaction was terminated by the transfer of 25 μL pf the reaction sample to a 96 well 0.65 μm Millipore MADVNOB membrane/plate containing 200 μL 5 mM EDTA and 20% Streptavidine coated beads in PBS.
The unbound radionucleotides were washed under vacuum with 3×250 μL 2M NaCl; 2×250 μL 2M NaCl+1% phosphoric acid; 1×250 μL H2O. After the last wash membrane/plates were transferred to an adaptor plate, heat dried for 15 min at 60° C., and 50 μL scintillation cocktail was added to each well and 4 h later the amount of radioactivity was counted in a top counter.

Structure (SMILES)	IC50 [1] [nM]	IC50 [2] [nM]
C[C@@H](NC(=O)c1c[nH]c2ncc(-c3nccc4ccccc34)nc12)C(=O)N1CC(C#N)C1 [Example I-77, 2-Isoquinolin-1-yl-5H-pyrrolo[2,3-b]pyrazine-7-carboxylic acid [(R)-2-(3-cyano-azetidin-1-yl)-1-methyl-2-oxo-ethyl]-amide]	53.8	> 10000
CC(NC(=O)c1c[nH]c2ncc(-c3nn(CCN(C)C)c4cc(Cl)ccc34)nc12)c1cccnc1 (centres unmarked) [Example I-246, 2-[6-Chloro-1-(2-dimethylamino-ethyl)-1H-indazol-3-yl]-5H-pyrrolo[2,3-b]pyrazine-7-carboxylic acid (1-pyridin-3-yl-ethyl)-amide]	41.5	354
CCCC(C)NC(=O)c1c[nH]c2ncc(-c3nn(C)c4cc(F)ccc34)nc12 (centres unmarked) [Example I-184, 2-(6-Fluoro-1-methyl-1H-indazol-3-yl)-5H-pyrrolo[2,3-b]pyrazine-7-carboxylic acid (1-methyl-butyl)-amide]	4.96	37.2
Cn1nc(-c2cnc3[nH]cc(C(=O)NC(C)(C)C#N)c3n2)c2ccc(F)cc21 [Example I-377, 2-(6-Fluoro-1-methyl-1H-indazol-3-yl)-5H-pyrrolo[2,3-b]pyrazine-7-carboxylic acid (cyano-dimethyl-methyl)-amide]	5.4	4.55
Cn1nc(-c2cnc3[nH]cc(C(=O)N[C@H]4CC[C@@H](CC#N)C4)c3n2)c2ccc(F)cc21 (relative stereo) [Example I-57, 2-(6-Fluoro-1-methyl-1H-indazol-3-yl)-5H-pyrrolo[2,3-b]pyrazine-7-carboxylic acid (cis-3-cyanomethyl-cyclopentyl)-amide]	10.6	44.4
Cc1ccc2c(-c3cnc4[nH]cc(C(=O)N[C@H](C)C(=O)N5CC(C#N)C5)c4n3)ncn2c1 [Example I-31, 2-(6-Methyl-imidazo[1,5-a]pyridin-1-yl)-5H-pyrrolo[2,3-b]pyrazine-7-carboxylic acid [(R)-2-(3-cyano-azetidin-1-yl)-1-methyl-2-oxo-ethyl]-amide]	0.335	53.1
CC(NC(=O)c1c[nH]c2ncc(-c3nn(C)c4cc(F)ccc34)nc12)c1ccno1 (centres unmarked) [Example I-55, 2-(6-Fluoro-1-methyl-1H-indazol-3-yl)-5H-pyrrolo[2,3-b]pyrazine-7-carboxylic acid (1-isoxazol-5-yl-ethyl)-amide]	16.9	56.4
C[C@@H](NC(=O)c1c[nH]c2ncc(-c3nn(C)c4cc(F)ccc34)nc12)c1ccccn1 [Example I-78, 2-(6-Fluoro-1-methyl-1H-indazol-3-yl)-5H-pyrrolo[2,3-b]pyrazine-7-carboxylic acid ((R)-1-pyridin-2-yl-ethyl)-amide]	14.2	30.2
CC(C)(C)NC(=O)c1c[nH]c2ncc(-c3ncn4cc(F)ccc34)nc12 [Example I-357, 2-(6-Fluoro-imidazo[1,5-a]pyridin-1-yl)-5H-pyrrolo[2,3-b]pyrazine-7-carboxylic acid tert-butylamide]	5.3	14.8
COc1ccc2c(-c3cnc4[nH]cc(C(=O)NC(C)(C)CO)c4n3)nn(C)c2c1 [Example I-365, 2-(6-Methoxy-1-methyl-1H-indazol-3-yl)-5H-pyrrolo[2,3-b]pyrazine-7-carboxylic acid (2-hydroxy-1,1-dimethyl-ethyl)-amide]	58.3	3.32
CC(NC(=O)c1c[nH]c2ncc(-c3nn(CCN4CCOCC4)c4cc(Cl)ccc34)nc12)c1cccnc1 (centres unmarked) [Example I-245, 2-[6-Chloro-1-(2-morpholin-4-yl-ethyl)-1H-indazol-3-yl]-5H-pyrrolo[2,3-b]pyrazine-7-carboxylic acid (1-pyridin-3-yl-ethyl)-amide]	47.2	131
CC(C)NC(=O)c1c[nH]c2ncc(-c3nn(C4COC4)c4cc(F)ccc34)nc12 [Example I-102, 2-(6-Fluoro-1-oxetan-3-yl-1H-indazol-3-yl)-5H-pyrrolo[2,3-b]pyrazine-7-carboxylic acid isopropylamide]	1.63	18.7
CC(NC(=O)c1c[nH]c2ncc(-c3nn(CCN(C)C)c4cc(F)ccc34)nc12)c1ccncc1 (centres unmarked) [Example I-249, 2-[1-(2-Dimethylamino-ethyl)-6-fluoro-1H-indazol-3-yl]-5H-pyrrolo[2,3-b]pyrazine-7-carboxylic acid (1-pyridin-4-yl-ethyl)-amide]	170	1990
Cn1nc(-c2cnc3[nH]cc(C(=O)NC4CCOCC4)c3n2)c2ccc(Cl)cc21 [Example I-112, 2-(6-Chloro-1-methyl-1H-indazol-3-yl)-5H-pyrrolo[2,3-b]pyrazine-7-carboxylic acid (tetrahydro-pyran-4-yl)-amide]	14.6	33.3
Cn1nc(-c2cnc3[nH]cc(C(=O)N[C@H]4CC[C@H](O)C4)c3n2)c2ccc(F)cc21 (relative stereo) [Example I-47, 2-(6-Fluoro-1-methyl-1H-indazol-3-yl)-5H-pyrrolo[2,3-b]pyrazine-7-carboxylic acid (trans-3-hydroxy-cyclopentyl)-amide]	5.31	21.9
Cn1nc(-c2cnc3[nH]cc(C(=O)NCC(C)(C)C)c3n2)c2ccc(F)cc21 [Example I-115, 2-(6-Fluoro-1-methyl-1H-indazol-3-yl)-5H-pyrrolo[2,3-b]pyrazine-7-carboxylic acid (2,2-dimethyl-propyl)-amide]	8.23	19.3
COC[C@H](C)NC(=O)c1c[nH]c2ncc(-c3nn(CCN4CCCC4)c4cc(F)ccc34)nc12 [Example I-242, 2-[6-Fluoro-1-(2-pyrrolidin-1-yl-ethyl)-1H-indazol-3-yl]-5H-pyrrolo[2,3-b]pyrazine-7-carboxylic acid ((S)-2-methoxy-1-methyl-ethyl)-amide]	2.1	209
Cc1cc(Cn2nc(-c3cnc4[nH]cc(C(=O)NC(C)C)c4n3)c3ccc(Cl)cc32)no1 [Example I-312, 2-[6-Chloro-1-(5-methyl-isoxazol-3-ylmethyl)-1H-indazol-3-yl]-5H-pyrrolo[2,3-b]pyrazine-7-carboxylic acid isopropylamide]	8.25	73.6

Other lines, results leading:

IC50 [1] [nM]	IC50 [2] [nM]	Structure (SMILES)
8.04	20.5	C[C@@H](CC#N)NC(=O)c1c[nH]c2ncc(-c3nn(C)c4cc(Cl)ccc34)nc12 [Example I-142, 2-(6-Chloro-1-methyl-1H-indazol-3-yl)-5H-pyrrolo[2,3-b]pyrazine-7-carboxylic acid ((S)-2-cyano-1-methyl-ethyl)-amide]
1.11	9.15	C[C@H](NC(=O)c1c[nH]c2ncc(-c3nn(C)c4cc(Cl)ccc34)nc12)C1CC1 [Example I-140, 2-(6-Chloro-1-methyl-1H-indazol-3-yl)-5H-pyrrolo[2,3-b]pyrazine-7-carboxylic acid ((S)-1-cyclopropyl-ethyl)-amide]
124	372	C[C@H](CN1CC[C@@H](F)C1)NC(=O)c1c[nH]c2ncc(-c3nn(C)c4cc(Cl)ccc34)nc12 [Example I-121, 2-(6-Chloro-1-methyl-1H-indazol-3-yl)-5H-pyrrolo[2,3-b]pyrazine-7-carboxylic acid [(R)-2-((R)-3-fluoro-pyrrolidin-1-yl)-1-methyl-ethyl]-amide]
1.9	4.6	CC[C@H](C)NC(=O)c1c[nH]c2ncc(-c3nn(C)c4cc(F)ccc34)nc12 [Example I-178, 2-(6-Fluoro-1-methyl-1H-indazol-3-yl)-5H-pyrrolo[2,3-b]pyrazine-7-carboxylic acid ((S)-sec-butyl)-amide]
82.4	284	C[C@H](CN1CC[C@H](F)C1)NC(=O)c1c[nH]c2ncc(-c3nn(C)c4cc(Cl)ccc34)nc12 [Example I-122, 2-(6-Chloro-1-methyl-1H-indazol-3-yl)-5H-pyrrolo[2,3-b]pyrazine-7-carboxylic acid [(R)-2-((S)-3-fluoro-pyrrolidin-1-yl)-1-methyl-ethyl]-amide]
9.44	17.6	CC(C)CNC(=O)c1c[nH]c2ncc(-c3nn(C)c4cc(F)ccc34)nc12 [Example I-116, 2-(6-Fluoro-1-methyl-1H-indazol-3-yl)-5H-pyrrolo[2,3-b]pyrazine-7-carboxylic acid isobutyl-amide]
4.65	13.5	CC(O)C(C)NC(=O)c1c[nH]c2ncc(-c3nn(C)c4cc(Cl)ccc34)nc12 (centres unmarked) [Example I-172, 2-(6-Chloro-1-methyl-1H-indazol-3-yl)-5H-pyrrolo[2,3-b]pyrazine-7-carboxylic acid (2-hydroxy-1-methyl-propyl)-amide]
178	64.4	CC(NC(=O)c1c[nH]c2ncc(-c3nn(C)c4cc(Cl)ccc34)nc12)c1nccn1C (centres unmarked) [Example I-199, 2-(6-Chloro-1-methyl-1H-indazol-3-yl)-5H-pyrrolo[2,3-b]pyrazine-7-carboxylic acid [1-(1-methyl-1H-imidazol-2-yl)-ethyl]-amide]
67.3	482	C[C@H](Cn1ccnc1)NC(=O)c1c[nH]c2ncc(-c3nn(C)c4cc(Cl)ccc34)nc12 [Example I-134, 2-(6-Chloro-1-methyl-1H-indazol-3-yl)-5H-pyrrolo[2,3-b]pyrazine-7-carboxylic acid ((R)-2-imidazol-1-yl-1-methyl-ethyl)-amide]
19.2	54.2	C[C@@H](NC(=O)c1c[nH]c2ncc(-c3nn(C)c4cc(Cl)ccc34)nc12)c1ccccc1 [Example I-25, 2-(6-Chloro-1-methyl-1H-indazol-3-yl)-5H-pyrrolo[2,3-b]pyrazine-7-carboxylic acid ((R)-1-phenyl-ethyl)-amide]
